The nature of data set [1]: Solubility in mineral oil. The following applies: oil or lipid, under certain conditions. It counts as physicochemical.
A short description of a further data set: Solubility in water. It counts as physicochemical.
Data set [2] can be described thus: Solubility in DMDA / Met10u high-KB amide surfactant. It counts as physicochemical.
Data set [3] is described as follows: Thermal stability (decarboxylation of CBDA to CBD). The following applies: saturated solution of CBDA in Met10u. It counts as physicochemical.
The conditions of data set [4]: cited from earlier work.

≈ marks a conversion by molar mass, not a printed value. A value given as a limit tells only on which side of the number the result lay.

One may read the solubility as the concentration that dissolves in the medium under given conditions. A word on the pKa: it is the pH at which an ionisable group is half protonated.

Consider `C=C(C)[C@@H]1CCC(C)=C[C@H]1c1c(O)cc(CCCCC)c(C(=O)O)c1O` [CBDA, Δ(9)-tetrahydrocannabidiolic acid], for which the solubility in data set [1] is approximately 6 mg/mL (≈ 16.7 mM); in data set [2] (DMDA (high-KB amide surfactant), organic solvent or mixture, at 70 C), more than 1000 mg/mL. Further, the “solubility of CBDA in water” value is “below 20 micrograms per milliliter” in “Solubility in water” (temperature of 4 degrees Celsius or lower, pH 4 or lower) and “over 20 milligrams per milliliter” in the data set “Solubility in water” (temperature of 70 degrees Celsius or higher, pH of 10 or higher). For the same compound, the “solubility of CBDA in Met10u” value is reported as 1% in data set [2] (at 0 C) and 100% in data set [2] (at 60 C). Further, the “temperature at which CBDA begins to lose its carboxylic moiety (decarboxylation) and become CBD” value in data set [3] is listed as “at least 130 C”.

Turning to `CCCCC/C=C\C/C=C\CCCCCCCC(=O)O` [Linoleic acid, linoleic acid], in data set [4], the pKa is 9.24.

Values taken from patent publication US20240316132A1 (priority 2023, published 2024).
